Assays:
CYP1A1 [1] = assay: CYP1A1 gene and protein expression in the liver of colchicine-treated mice; type: in vivo, C57BL/6J mice; conditions: colchicine 3, 5 mg/kg by gavage for 3 days; dose-dependent
Description: (§1) Ruoyue Huang, Jingyi Duan, We n Huang, Ya n Cheng, Bei wei Zhu and Fei Li
(§2) Supplementary materials and methods
(§3) Reference numbers refer to the main text list
(§4) UHPLC‐Q exactive plus MS Analysis
(§5) All samples were analyzed on a liquid chromatography system including a Vanquish autosampler, Vanquish detector, Vanquish pump (Thremo Fisher Scientific, Santa Clara, CA). Samples were separated on an ACQUITY UPLC HSS T3 column (2.1×100 mm, […], Waters, USA). The injection volume: 5 μL, and the flow rate was 0.3 mL/min.
(§6) Phase A was H2O containing 0.01% formic acid, and phase B was acetonitrile containing 0.01% formic acid. The elution gradient was as follows: 0‐12 mi n, 2‐98% B; 12‐14 min, 2% A; 14‐16 min, 98% A. Other parameters are as follows: column temperature 45 ℃ , flow rate of collision gas and dry gas 9 L/min. Capillary voltage 3.5 kV, temperature 350 ℃ , atomizer pressure 35 psi. Vanquish UHPLC‐Q Exactive plus MS (Thermo Fisher, USA) was collected in both positive modes, operating in full scan mode with 60‐900 m/z.
(§7) Preparation of primary hepatocytes
Primary mouse hepatocytes were isolated from male C57BL/6J mice as shown in previous literature. […]
(§8) Quantitative real‐time PCR analysis […]
(§9) Immunohistochemistry was determined by used the previously described method. […]

CYP1A1 [2] = assay: CYP1A1 gene and protein expression in primary hepatocytes; type: cell-based, C57BL/6J mice; conditions: colchicine 4–400 µM, 48 h
Description: (§10) The method of isolating primary mouse hepatocytes from mice (C57BL/6J) was that shown in the previous report, and it is briefly described in Supporting Information.
(§11) The cells were harvested and used for protein extraction after incubation for 48 h. […]
(§12) Supplementary materials and methods […]
as §7
(§13) Primary mouse hepatocytes were isolated from male C57BL/6J mice as shown in previous literature. The liver was perfused through the portal vei n with Hanks solution twice (the first solution contains 1% penicillin/streptomycin, the second solution contains 0.05% collagenase IV) after mice were anesthetized with ether, and then they were killed by exsanguination. Hepatocytes were harvested by centrifugation three times (The first centrifugal condition is 50 0 rpm for 3 minutes, the second and third centrifugal condition is 1500 rpm for 5 min) after the perfused liver was passed through 100 filter sizes, and they were re‐suspended in Dulbeco Modified Eagle Medium (DMEM) (Hyclone, USA).
Cells were collected and seeded at a density of 2 × 10^5 cells ml‐1 in plates and cultured overnight in William E (Gibco, USA) medium (0.5 U/mL insulin, 1% penicillin/streptomycin, 10% FBS and 0.4 μg/mL dexamethasone) at 37 ℃ in a humidified Air /CO2 Incubator (5% V/V).
Quantitative real‐time PCR analysis
QPCR were performed as described previously. […]

CASPASE-1-GSDMD pathway = assay: Western blot of CASPASE-1-GSDMD pathway in primary hepatocytes; type: cell-based, C57BL/6J mice
Description: as §10, §11, §12, §7, §13
(§14) Cells were collected and seeded at a density of 2 × 10^5 cells ml‐1 in plates and cultured overnight in William E (Gibco, USA) medium (0.5 U/mL insulin, 1% penicillin/streptomycin, 10% FBS and 0.4 μg/mL dexamethasone) at 37 ℃ in a humidified Air /CO2 Incubator (5% V/V). […]
QPCR were performed as described previously. Briefly, Trizol reagent (Life Technologi es, Carlsbad, CA, USA) and SYBR Green PCR master mixture (Vazyme, Nanjing, China) were used for the experiment . The qPCR was performed in the CFX Connect real‐time system (Bio‐Rad Laboratories, Hercules, CA, USA), with 18S was used as […]
The methods for Western blot analysis were described in previous literature. Briefly, RIPA (POO13B, Beyotime Biotech), BCA kit (P0009, Beyotime Biotech), and 5% BSA (A8020, Solarbio) buffer were used for the experiment. […]

liver [3] = assay: Colchicine-induced liver injury in mice
Description: The animal studies were approved by the Animal Care and Use Committee of West China Hospital, Sichuan University (20230412004, the ethics approval date was 12 April 2023). Chengdu Yaokang Biotechnology Co., Ltd. (Chengdu, China), provided the male C57BL/6J mice (18–22 g, 6 to 8 weeks old, No. SCXK (Sichuan) 2020-034). All animals were acclimated to the experimental environment for 1 week, and finally, the animals were anesthetized with CO2 and killed [38].
ALP, ALT and AST were measured in plasma, and MDA (Nanjing Jiancheng Bioengineering Institute, Nanjing, China) was measured in the liver. Histological characteristics were observed by preparing paraffin sections of liver tissue and performing hematoxylin and eosin (H&E) staining.

liver [4] = assay: Diosmin co-treatment in colchicine-induced liver injury in mice; type: in vivo, C57BL/6J mice
Description: To investigate the role of CYP1A1 in colchicine-induced liver injury in mice, a CYP1A1 agonist (diosmin) was used. […] All mice in the control group received 0.5% CMC-Na prior to the administration of water, and the mice were sacrificed for sample collection 24 h after the final administration.
Supplementary Materials: Inhibition of CYP1A1 Alleviates
as §1, §2, §3, §4, §5
as §6, with “Vanquish UHPLC‐Q Exactive plus MS (Thermo Fisher, USA) was collected in both positive modes, operating in full scan mode with 60‐900 m/z.” left out
as §8, §9

primary hepatocytes = assay: MTT cell viability in primary hepatocytes co-treated with colchicine and diosmin; type: cell-based, C57BL/6J mice; conditions: diosmin pre-treatment 2 h, then colchicine 100 µM, 48 h
Excerpt: The method of isolating primary mouse hepatocytes from mice (C57BL/6J) was that shown in the previous report, and it is briefly described in Supporting Information. […]
as §12, §7, §13, §14
QPCR were performed as described previously. Briefly, Trizol reagent (Life Technologi es, Carlsbad, CA, USA) and SYBR Green PCR master mixture (Vazyme, Nanjing, China) were used for the experiment . […]

CYP1A1 [5] = target: T1, CYP1A1 (Homo sapiens, UniProt P04798); assay: Inhibition of CYP1A1 demethylation metabolism of colchicine by co-incubation with inhibitor; type: biochemical; conditions: colchicine 25 µM co-cultured with α-naphthoflavone 10 µM; n = 3
T1 construct: purchased Research Institute for Liver Diseases Co., Ltd. (Shanghai, China)
T1 sequence (P04798 1-512): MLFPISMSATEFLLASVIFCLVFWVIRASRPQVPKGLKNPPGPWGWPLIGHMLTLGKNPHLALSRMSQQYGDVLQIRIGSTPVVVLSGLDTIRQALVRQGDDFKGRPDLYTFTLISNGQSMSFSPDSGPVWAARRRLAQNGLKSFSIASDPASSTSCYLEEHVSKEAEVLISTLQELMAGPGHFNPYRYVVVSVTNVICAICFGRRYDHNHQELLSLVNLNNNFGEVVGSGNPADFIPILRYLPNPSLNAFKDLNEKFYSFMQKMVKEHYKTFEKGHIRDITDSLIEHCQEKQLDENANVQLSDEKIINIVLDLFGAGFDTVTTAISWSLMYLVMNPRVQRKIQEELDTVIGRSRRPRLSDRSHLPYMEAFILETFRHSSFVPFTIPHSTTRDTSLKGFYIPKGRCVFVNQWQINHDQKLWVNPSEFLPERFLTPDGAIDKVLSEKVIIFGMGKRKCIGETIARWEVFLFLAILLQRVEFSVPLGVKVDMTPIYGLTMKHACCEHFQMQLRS
Description: The control group was a system without NADPH or colchicine. […] Pre-cooled acetonitrile was used to terminate the reaction, and then centrifugation (4 °C, 12,000 rpm, 20 min) was performed to obtain the sample.
All samples were analyzed as shown in [17] and are briefly described in Supporting Information.

liver [6] = assay: α-Naphthoflavone intervention in colchicine-induced liver injury in mice; type: in vivo, C57BL/6J mice
[7] = colchicine 3, 5 mg/kg by gavage for 3 consecutive days

Question: What does the source list for `COc1cc2c(c(OC)c1OC)-c1ccc(OC)c(=O)cc1[C@@H](NC(C)=O)CC2` [colchicine, Colchicine]?
Answer: mRNA and protein levels of the CYP1A1 enzyme in the liver (CYP1A1 [1]): increased; mRNA and protein levels of CYP1A1 in primary hepatocytes (CYP1A1 [2]): dose-dependently increased; CASPASE-1-GSDMD pathway in primary hepatocytes (CASPASE-1-GSDMD pathway; colchicine group versus control): significantly up-regulated; CASPASE-1-GSDMD pathway in the liver (liver [3]; colchicine 5 mg/kg, versus control group): activated; ALP enzyme level in plasma (liver [3]; [7]): significantly increased; ALT enzyme level in plasma (liver [3]; [7]): significantly increased; AST enzyme level in plasma (liver [3]; [7]): significantly increased; CASPASE-1 in the liver (gene expression, immunohistochemical staining) (liver [3]; [7]): activated; body weight of mice (liver [3]; [7]): decreased significantly; gross anatomy of the liver (liver [3]; [7]): enlarged liver and shrunken gallbladder; liver histology, H&E staining (liver [3]; [7]): inflamed liver

Question: For `COc1ccc(-c2cc(=O)c3c(O)cc(O[C@@H]4O[C@H](CO[C@@H]5O[C@@H](C)[C@H](O)[C@@H](O)[C@H]5O)[C@@H](O)[C@H](O)[C@H]4O)cc3o2)cc1O` [diosmin], which “colchicine-induced CASPASE-1-GSDMD pathway activation in the liver (cl-CASPASE, cl-GSDMD)” value (liver [4]; diosmin 100 mg/kg + colchicine 5 mg/kg, versus colchicine group) is on record?
Answer: Its value is “enhanced”.

Question: What about the “colchicine-induced hepatotoxicity (MDA, AST, ALT, ALP)” value (liver [4]; diosmin 100 mg/kg by gavage 2 h prior to colchicine 5 mg/kg) of the same compound?
Answer: The value was “effectively aggravated”.

Question: What about the “primary hepatocyte death caused by colchicine (MTT)” value (primary hepatocytes) of the same compound?
Answer: The value was “exacerbated”.

Question: And the “CASPASE-1-GSDMD pathway in primary hepatocytes” value (CASPASE-1-GSDMD pathway; diosmin in a dose-gradient manner + colchicine 100 µM, compared to the colchicine-only group)?
Answer: Its value is “significantly up-regulated”.

Question: Which “demethylation metabolism of colchicine by CYP1A1” value (CYP1A1 [5]) does the source give for `O=c1cc(-c2ccccc2)oc2c1ccc1ccccc12` [α-naphthoflavone] here?
Answer: The value was “significantly inhibited”.

Question: And the “colchicine-induced liver injury (AST, ALT enzyme activity and MDA oxidative stress)” value (liver [6]; α-naphthoflavone 30 mg/kg i.p. 2 h prior to colchicine 5 mg/kg, 3 days)?
Answer: The value was “significantly alleviated”.

Question: What about the “CASPASE-1-GSDMD pathway proteins (cl-CASPASE, cl-GSDMD) in the liver” value (liver [6]; α-naphthoflavone 30 mg/kg i.p. + colchicine 5 mg/kg, versus colchicine group) of the same compound?
Answer: Its value is “significantly down-regulated”.

Question: What about the “CASPASE-1-GSDMD pathway protein levels in primary hepatocytes” value (CASPASE-1-GSDMD pathway; colchicine + different concentrations of α-naphthoflavone, dose-gradient manner, versus colchicine group) of the same compound?
Answer: The value was “restored the abnormal protein levels”.
